According to US10251937B2, “Retro-inverso analogs of spadin display increased antidepressant effects” (MEDINCELL, priority 2014, dated 2019):
Square brackets hold non-standard residues; d marks the D form. Peptide text beside a SMILES is read from it.

Legend:
[1] = molecular target: hERG (human Ether a go-go Related Gene) current IKr (Homo sapiens, UniProt Q12809); assay: Cardiac IKr (hERG) current, whole cell patch clamp in transfected HEK cells
Description: HEK-293 native cells were grown in serum in an atmosphere of 95% air/5% CO2 in Dulbecco's modified Eagle's medium supplemented with 10% (v/v) heat inactivated fetal bovine containing 1% (v/v) of penicillin/streptomycin and Glutamax×1. Cells were plated at a density of 20000 cells/35 mm dish and after 24 h cells were transfected using the JetPEI® method (Polyplus, France) with 25 ng/35 mm dish of p-IRES-HERG channel vector. Patch clamp experiments were carried out 48 h after transfection
All electrophysiological recordings were performed in whole cell configuration of the patch clamp technique. Each current was evaluated by using a RK 400 patch clamp amplifier (Axon Instrument, USA), low-pass filtered at 3 kHz and digitized at 10 kHz using a 12-bit analog-to-digital converter digidata (1322 series, Axon Instrument, USA). All current amplitudes are expressed in current densities. Results were expressed as mean±standard error of the mean (SEM). […] The bath solution contained 150 mM NaCl, 5 mM KCl, 3 mM MgCl2, 1 mM CaCl2 and 10 mM HEPES adjusted to pH 7.4 with NaOH. The pipette solution contained 155 mM KCl, 3 mM MgCl2, 5 mM EGTA and 10 mM HEPES adjusted to pH 7.2 with KOH. […] All experiments were performed at room temperature (21-22° c.). Stimulation protocols and data acquisition were carried out using a microcomputer (Dell Pentium) with a commercial software and hardware (pClamp 8.2). Currents were recorded by voltage clamp steps to membrane potentials of −100 to +60 mV in 20 mV steps applied from a holding potential of −80 mV. Duration of depolarization pulses were 0.825 ms, and the pulse cycling rate was 5 sec. […] Cells were continuously superfused with a microperfusion system. […] Tail currents were generated by repolarization to −40 mV. […] IKR currents were activated by voltage clamp steps of membrane potentials from −100 to +100 mV in 10 mV steps applied from a holding potential of +80 mV and tail currents were generated by a repolarization to +40 mV. […] The amplitudes of IKS and IKR currents were calculated at both the end of the first pulse and the peak of the tail pulse.

TREK-1 channels = molecular target: T1, TREK-1 channels (Homo sapiens, UniProt O95069); assay: TREK-1 current inhibition, whole cell patch clamp on h-TREK-1/HEK cell line; format: cell-based
T1 construct: expressed in transfected cells
T1 sequence (O95069 1-426): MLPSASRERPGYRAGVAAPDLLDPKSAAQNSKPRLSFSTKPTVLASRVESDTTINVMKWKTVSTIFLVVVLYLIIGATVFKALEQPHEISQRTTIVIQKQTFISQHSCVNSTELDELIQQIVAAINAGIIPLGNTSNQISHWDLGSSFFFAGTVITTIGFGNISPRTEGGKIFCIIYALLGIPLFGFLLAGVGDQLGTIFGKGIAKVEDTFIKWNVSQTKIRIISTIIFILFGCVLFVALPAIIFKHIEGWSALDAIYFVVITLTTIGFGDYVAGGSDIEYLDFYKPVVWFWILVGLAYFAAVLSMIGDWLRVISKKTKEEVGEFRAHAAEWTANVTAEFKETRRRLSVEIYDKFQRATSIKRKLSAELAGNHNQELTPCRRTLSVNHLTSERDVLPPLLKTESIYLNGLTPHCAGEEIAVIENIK
Description: The human-TREK-1/HEK293 cell line (h-TREK-1/HEK) (Moha ou Maati, H. et al. (2011). PloS one, 6 (10), e25602) and HEK-IKS cell line (Ducroq, J. et al, (2010) Br J Pharmacol, 159(1):93-101) were grown in the presence of 0.5 mg/mL G418 in Dulbecco's modified Eagle's medium supplemented with 10% (v/v) heat inactivated fetal bovine serum containing 1% (v/v) penicillin/streptomycin in an atmosphere of 95% air/5% CO2.
All electrophysiological experiments were performed on h-TREK-1/HEK cells seeded at a density of 20 000 cells/35-mm dish after 2-6 days of culture. All electrophysiological recordings were performed in whole cell configuration of the patch clamp technique. Each current was evaluated by using a RK 400 patch clamp amplifier (Axon Instrument, USA), low-pass filtered at 3 kHz and digitized at 10 kHz using a 12-bit analog-to-digital converter digidata (1322 series, Axon Instrument, USA). All current amplitudes are expressed in current densities. Results were expressed as mean±standard error of the mean (SEM). […] The bath solution contained 150 mM NaCl, 5 mM KCl, 3 mM MgCl2, 1 mM CaCl2 and 10 mM HEPES adjusted to pH 7.4 with NaOH. The pipette solution contained 155 mM KCl, 3 mM MgCl2, 5 mM EGTA and 10 mM HEPES adjusted to pH 7.2 with KOH. TREK-1 currents were evaluated in the presence of a cocktail of potassium channel inhibitors (K+ blockers: 3 mM 4-aminopyridine (4-AP), 10 mM tetraethylammonium (TEA), 10 μM glibenclamide, 100 nM apamin and 50 nM charybdotoxin). All experiments were performed at room temperature (21-22° c.). Stimulation protocols and data acquisition were carried out using a microcomputer (Dell Pentium) with a commercial software and hardware (pClamp 8.2). Currents were recorded by voltage clamp steps to membrane potentials of −100 to +60 mV in 20 mV steps applied from a holding potential of −80 mV. Duration of depolarization pulses were […], and the pulse cycling rate was 5 sec. TREK-1 current amplitudes were evaluated at the end of the stimulation pulses. Cells were continuously superfused with a microperfusion system. Inhibitory effects of spadin and analogs were performed on arachidonic acid pre-activated TREK-1 currents. Spadin and analogs were tested at the unique dose of 100 nM. For both Analog 3 (SEQ ID:4) and Analog 8 (SEQ ID:9) concentration-dependant inhibitions were performed by applying concentrations ranging between 1 nM to 1 μM. IKS currents were activated by voltage clamp steps of membrane potentials from −100 to +100 mV in 20 mV steps applied from a holding potential of −80 mV. Tail currents were generated by repolarization to −40 mV. Duration of both depolarization and repolarization pulses were 2.4 s, and the pulse cycling rate was 10 s. IKR currents were activated by voltage clamp steps of membrane potentials from −100 to +100 mV in 10 mV steps applied from a holding potential of […] and tail currents were generated by a repolarization to […]. Duration of both depolarization and repolarization pulses were 1 s, and the pulse cycling rate was 5 s. The amplitudes of IKS and IKR currents were calculated at both the end of the first pulse and the peak of the tail pulse.
Neuropharmacology 62, 278, (2012)) was used as reference.

C57Bl/6J mice [2] = assay: Tail-immersion (tail flick) test, thermal pain; format: in vivo; details: 10 μg/kg i.v., 30 min before test, n=10
Description: Mice were i.v. injected with 10 μg/kg of spadin in a bolus of 100 μL or 100 μL of a saline solution (0.9% NaCl) 30 min before the beginning of the test. The tail was immersed in a water bath at 48° C. until withdrawal was observed (cut-off time: 30 s). Two separate withdrawal latency time determinations were averaged.

C57Bl/6J mice [3] = assay: Seizure induced by kainate; format: in vivo; details: for effect against epilepsy seizure triggered by kainate: kainate 25 mg/Kg
Description: Kainate solutions were prepared in a solution of 140 mM NaCl (saline solution). […] Mice (n=10 per group) were monitored during 2 h for onset and extent of seizures. Six levels of seizure severity were defined as follows: 1—immobility, 2—head/neck movements, 3—clonic unilateral activity, 4—clonic bilateral activity, 5—generalized convulsions, and 6—death. Seizure severity was blindly scored (Moha ou Maati, H. et al. A human TREK-1/HEK cell line: a highly efficient screening tool for drug development in neurological diseases. PLoS One 6, e25602, (2011)). The seizure index was calculated by averaging the points for seizure activity in each group (n=10 per treatment).

[4] = 0 mV, in the presence of 10 μM, n=5

Sequence of hERG (human Ether a go-go Related Gene) current IKr (Q12809 whole entry): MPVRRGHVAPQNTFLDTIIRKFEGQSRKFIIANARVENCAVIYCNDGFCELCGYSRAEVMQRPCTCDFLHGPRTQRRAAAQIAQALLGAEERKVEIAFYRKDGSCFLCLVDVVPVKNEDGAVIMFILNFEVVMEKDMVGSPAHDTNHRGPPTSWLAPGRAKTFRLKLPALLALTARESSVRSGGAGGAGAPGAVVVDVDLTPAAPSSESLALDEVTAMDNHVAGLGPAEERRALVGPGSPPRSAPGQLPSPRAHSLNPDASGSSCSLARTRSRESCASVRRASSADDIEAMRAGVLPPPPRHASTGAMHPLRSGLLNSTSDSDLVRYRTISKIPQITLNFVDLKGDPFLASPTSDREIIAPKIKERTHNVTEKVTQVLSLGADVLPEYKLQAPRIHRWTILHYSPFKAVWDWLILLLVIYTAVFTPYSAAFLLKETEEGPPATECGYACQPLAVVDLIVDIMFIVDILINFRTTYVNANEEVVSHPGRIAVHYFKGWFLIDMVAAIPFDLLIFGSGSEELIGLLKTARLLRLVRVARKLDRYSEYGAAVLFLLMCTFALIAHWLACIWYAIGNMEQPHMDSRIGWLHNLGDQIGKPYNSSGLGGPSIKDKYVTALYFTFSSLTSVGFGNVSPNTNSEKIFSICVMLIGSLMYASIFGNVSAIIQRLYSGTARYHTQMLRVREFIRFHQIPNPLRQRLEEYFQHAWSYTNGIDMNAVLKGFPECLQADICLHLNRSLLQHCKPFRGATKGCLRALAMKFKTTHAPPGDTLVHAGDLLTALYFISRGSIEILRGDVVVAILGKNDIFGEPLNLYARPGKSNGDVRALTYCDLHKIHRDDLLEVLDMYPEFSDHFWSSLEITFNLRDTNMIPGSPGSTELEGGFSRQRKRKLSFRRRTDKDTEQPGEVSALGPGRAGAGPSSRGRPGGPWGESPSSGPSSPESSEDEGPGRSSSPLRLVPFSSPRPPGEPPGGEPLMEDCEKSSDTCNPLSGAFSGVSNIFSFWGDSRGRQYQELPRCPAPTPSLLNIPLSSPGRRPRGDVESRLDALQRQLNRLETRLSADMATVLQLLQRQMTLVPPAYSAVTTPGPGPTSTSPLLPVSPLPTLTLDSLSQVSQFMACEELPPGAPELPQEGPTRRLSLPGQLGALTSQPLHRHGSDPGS

CC[C@@H](C)[C@@H](NC(=O)CNC(=O)[C@H](NC(=O)[C@@H](CO)NC(=O)[C@@H](Cc1c[nH]c2ccccc12)NC(=O)CNC(=O)[C@@H](CC(C)C)NC(=O)[C@@H](CCCNC(=N)N)NC(C)=O)C(C)C)C(=O)N1CCC[C@@H]1C(=O)NCC(=O)N[C@H](CO)C(=O)N[C@H](Cc1c[nH]c2ccccc12)C(=O)N[C@H](CCCNC(=N)N)C(=O)N1CCC[C@@H]1C(=O)N[C@H](CC(C)C)C(=O)N1CCC[C@@H]1C(=O)N[C@H](C)C(N)=O [Analog 3, Ac-rlGwsvGipGswrplpa-NH2] (Ac-[dR][dL]G[dW][dS][dV]G[dI][dP]G[dS][dW][dR][dP][dL][dP][dA]-NH2)
IKr current density at end of first pulse [1, 4]: 224.48±35.94 pA/pF | IKr tail current density [1, 4]: 212.99±38.38 pA/pF | effect on currents generated by IKr channels expressed in HEK cells ([1]; 10 μM): did not modify currents | blockade effect on TREK-1 channel activity compared to spadin (TREK-1 channels; 100 nM, n=10 to 12): increased blockade effect | higher affinity for TREK-1 channels than spadin (TREK-1 channels; compared to spadin IC50): 6 fold | tail withdrawal time (C57Bl/6J mice [2]): 11.32 ± 1.04 s | effect against epilepsy seizure triggered by kainate (C57Bl/6J mice [3]; 1 μg/Kg i.v.): no protective effect | effect against epilepsy seizure triggered by kainate (C57Bl/6J mice [3]; 10 μg/Kg i.v.): important protective effect | mice among 10 that reached the two less severe stages of epilepsy seizures (immobility, head or neck movements) (C57Bl/6J mice [3]; 10 μg/Kg i.v., kainate 25 mg/Kg i.p.): two
